Test results taken from ChEMBL document CHEMBL1201862, “PubChem BioAssay data set” (2004).
Active and inactive are the calls of the source.

Key:
[1] = cells
[2] = tested on: HeLa; assay: Cytotoxicity counterscreen assay for transcriptional activators of heat shock protein 70 (Hsp70). [Related pubchem assays: 1203, 1252 ]; type: functional; details: Homo sapiens;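 further: cells exposed to compound for 16 hours before readout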
[3] = NIH3T3 cell viability loss – ATP luminescence, mouse fibroblasts, counter-screen, dose response (AID 2010); type: functional, cell-based;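 further: cells exposed to compound for about 90 hours before reading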
[4] = Trypanosoma cruzi growth suppression in host cells – NIH3T3 host cells, beta-gal luminescence, confirmation (AID 2044); type: functional, cell-based;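 further: intracellular parasites grown in NIH/3T3 mouse fibroblasts as host cells; luminescent beta-galactosidase reporter signal from transgenic T. cruzi replicating inside host cells; inhibitors lower the luminescence signal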
[5] = tested on: INS1; assay: INS-1E survival protection against cytokine death – cell-based, luminescence, retest, dose response (AID 449756); type: functional; details: Rattus norvegicus;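 further: cell death triggered by IL-1 beta plus TNF-alpha plus IFN-gamma mixture; protective hits raise ATP signal compared with cytokine alone wells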
[6] = fluconazole-exposed Candida albicans growth modulators – fluorescence, retest, confirmation (AID 2467); type: functional, cell-based
[7] = Luminescence-based counterscreen assay for KLF5 inhibitors: dose response cell-based high throughput screening assay to identify cytotoxic compounds using the IEC-6 intestinal epithelial cell line. [Related pubchem assays: 1700 (Primary screen.), 1834 (Confirmation screen.), 1858 (Summary AID.), 1905 (Counterscreen.)]; type: functional
[8] = cells; type: functional, cell-based
[9] = NIH-3T3 fibroblast cytotoxicity, dose response, cytotoxicity control, cell-based, fluorescence, Alamar Blue, secondary assay (AID 2327); type: functional;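 further: NIH-3T3 mouse fibroblasts cultured with fluconazole at 8 µg/mL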
[10] = tested on: HEK293; assay: EBV LMP1 TES2 canonical NF-kB signalling blockers – cell-based, HEK293, luciferase, cherry-pick, dose response (AID 588343); type: functional; details: Homo sapiens
[11] = biological target: Nonstructural protein 1 (Influenza A virus, UniProt Q194T2); type: functional, Influenza A virus (A/California/07/2009(H1N1))
Chain of Nonstructural protein 1 (Q194T2 whole entry): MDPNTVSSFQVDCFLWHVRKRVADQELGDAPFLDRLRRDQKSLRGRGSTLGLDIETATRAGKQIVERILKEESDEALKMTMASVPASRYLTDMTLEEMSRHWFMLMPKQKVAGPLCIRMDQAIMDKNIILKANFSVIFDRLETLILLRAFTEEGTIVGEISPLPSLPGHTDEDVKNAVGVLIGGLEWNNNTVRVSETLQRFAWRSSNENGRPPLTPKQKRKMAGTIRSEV

[12] = cells; type: functional, cell-based; remark: listed apart in the source
[13] = Intein inhibitors as potential Tuberculosis drugs, a cytotoxicity screen. [Related pubchem assays (depositor defined):AID2221, AID2223, AID434968, AID435010, AID449749, AID449750, AID489010]; type: functional
[14] = biological target: Potassium voltage-gated channel subfamily KQT member 2 (Rattus norvegicus, UniProt O88943, W236L); assay: potentiation of rat KCNQ2 current – cell-based, automated electrophysiology, mechanism study for KCNQ2 potentiator project, dose response (AID 2603); type: functional
Chain of Potassium voltage-gated channel subfamily KQT member 2 (O88943 whole entry W236L): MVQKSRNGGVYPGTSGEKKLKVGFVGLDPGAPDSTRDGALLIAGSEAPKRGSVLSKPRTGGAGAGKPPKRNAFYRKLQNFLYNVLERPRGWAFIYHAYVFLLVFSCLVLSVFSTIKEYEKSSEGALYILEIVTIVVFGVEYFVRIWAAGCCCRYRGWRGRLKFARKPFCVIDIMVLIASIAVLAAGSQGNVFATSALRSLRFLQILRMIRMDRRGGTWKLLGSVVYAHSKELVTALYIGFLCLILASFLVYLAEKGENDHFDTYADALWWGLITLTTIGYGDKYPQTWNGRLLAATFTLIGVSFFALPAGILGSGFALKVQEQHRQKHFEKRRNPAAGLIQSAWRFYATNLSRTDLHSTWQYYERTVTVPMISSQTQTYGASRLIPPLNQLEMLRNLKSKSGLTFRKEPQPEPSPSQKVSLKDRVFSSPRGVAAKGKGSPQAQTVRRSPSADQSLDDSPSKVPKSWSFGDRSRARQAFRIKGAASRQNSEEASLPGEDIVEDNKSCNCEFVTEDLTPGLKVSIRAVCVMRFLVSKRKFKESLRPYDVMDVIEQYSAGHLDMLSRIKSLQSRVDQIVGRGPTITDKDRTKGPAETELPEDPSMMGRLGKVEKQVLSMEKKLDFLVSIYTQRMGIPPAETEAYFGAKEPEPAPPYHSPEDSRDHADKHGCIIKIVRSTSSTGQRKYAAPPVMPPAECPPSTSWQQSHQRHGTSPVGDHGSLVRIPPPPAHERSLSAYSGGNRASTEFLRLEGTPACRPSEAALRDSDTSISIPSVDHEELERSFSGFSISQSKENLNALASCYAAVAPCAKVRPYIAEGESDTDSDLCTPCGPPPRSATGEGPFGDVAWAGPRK

[15] = non-specific 3'UTR reporter inhibition in Clone20-Shn3RL – cell-based, Renilla luciferase, cherry-picked, counter-screen for Shn3 inhibitor project, dose response (AID 624133); type: functional
[16] = reduction of Shn3 3'UTR-driven luciferase in osteoblasts – cell-based, Clone20 osteoblasts, firefly luciferase, cherry-picked, dose response (AID 624132); type: functional;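 further: firefly luciferase luminescence from reporter carrying the Shn3 3'UTR in osteoblasts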
[17] = biological target: T1, Replicative DNA helicase DnaB (Mycobacterium tuberculosis, UniProt P9WMR3); assay: DnaB intein splicing inhibitors, dose response, biochemical, cell-free fluorescence (AID 449749); type: functional
T1 sequence (P9WMR3 whole entry): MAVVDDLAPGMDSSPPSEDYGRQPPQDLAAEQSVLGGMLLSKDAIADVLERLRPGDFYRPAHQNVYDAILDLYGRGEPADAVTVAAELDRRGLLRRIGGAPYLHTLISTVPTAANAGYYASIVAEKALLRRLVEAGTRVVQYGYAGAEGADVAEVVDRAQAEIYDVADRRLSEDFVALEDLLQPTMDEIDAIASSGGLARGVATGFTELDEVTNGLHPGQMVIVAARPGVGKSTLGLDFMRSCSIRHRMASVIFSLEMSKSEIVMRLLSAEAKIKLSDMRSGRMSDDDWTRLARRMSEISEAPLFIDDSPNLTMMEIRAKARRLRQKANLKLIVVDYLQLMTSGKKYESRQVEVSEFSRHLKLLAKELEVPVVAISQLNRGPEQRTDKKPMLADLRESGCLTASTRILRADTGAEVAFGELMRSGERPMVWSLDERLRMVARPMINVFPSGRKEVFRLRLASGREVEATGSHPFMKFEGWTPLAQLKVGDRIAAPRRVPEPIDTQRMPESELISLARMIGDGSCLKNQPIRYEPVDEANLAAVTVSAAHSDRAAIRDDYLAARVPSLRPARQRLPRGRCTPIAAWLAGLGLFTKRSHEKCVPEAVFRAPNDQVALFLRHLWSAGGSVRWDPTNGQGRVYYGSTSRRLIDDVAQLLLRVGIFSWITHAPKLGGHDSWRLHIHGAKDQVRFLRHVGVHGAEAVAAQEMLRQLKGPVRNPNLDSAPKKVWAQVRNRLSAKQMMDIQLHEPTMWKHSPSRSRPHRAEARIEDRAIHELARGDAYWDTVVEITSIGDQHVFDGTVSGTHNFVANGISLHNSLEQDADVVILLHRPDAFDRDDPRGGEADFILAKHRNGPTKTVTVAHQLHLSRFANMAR

[18] = biological target: Genome polyprotein (dengue virus type 2, UniProt P29990); assay: flavivirus cap methylation enzyme inhibition – biochemical, confirmation dose response, primary screen (AID 588689); type: functional
Chain of Genome polyprotein (P29990 2492-3391 limits assumed): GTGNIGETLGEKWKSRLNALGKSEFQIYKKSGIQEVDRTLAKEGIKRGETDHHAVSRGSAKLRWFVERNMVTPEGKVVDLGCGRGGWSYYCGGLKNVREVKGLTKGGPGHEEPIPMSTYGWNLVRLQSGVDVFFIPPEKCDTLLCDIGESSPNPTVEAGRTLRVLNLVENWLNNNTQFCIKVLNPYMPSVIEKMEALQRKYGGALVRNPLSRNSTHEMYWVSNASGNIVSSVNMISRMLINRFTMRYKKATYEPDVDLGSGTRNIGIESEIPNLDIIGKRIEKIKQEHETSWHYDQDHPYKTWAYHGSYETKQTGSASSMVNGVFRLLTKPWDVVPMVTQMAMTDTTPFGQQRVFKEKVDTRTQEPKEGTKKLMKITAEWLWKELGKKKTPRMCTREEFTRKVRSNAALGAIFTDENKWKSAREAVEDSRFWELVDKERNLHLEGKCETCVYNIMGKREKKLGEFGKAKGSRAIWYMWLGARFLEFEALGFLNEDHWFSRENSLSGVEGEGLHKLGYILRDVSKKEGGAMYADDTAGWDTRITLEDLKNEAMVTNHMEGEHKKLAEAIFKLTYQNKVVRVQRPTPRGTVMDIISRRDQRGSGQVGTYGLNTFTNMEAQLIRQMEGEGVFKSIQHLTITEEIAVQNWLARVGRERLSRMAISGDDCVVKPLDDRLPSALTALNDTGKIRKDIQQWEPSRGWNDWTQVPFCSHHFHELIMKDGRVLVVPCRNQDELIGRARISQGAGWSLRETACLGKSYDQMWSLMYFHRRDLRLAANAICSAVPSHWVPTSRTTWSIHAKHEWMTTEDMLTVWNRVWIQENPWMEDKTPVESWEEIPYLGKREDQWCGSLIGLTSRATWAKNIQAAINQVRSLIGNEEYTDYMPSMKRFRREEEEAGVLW

[19] = biological target: Hepatocyte nuclear factor 4-alpha (Homo sapiens, UniProt P41235); type: functional, cell-based;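 further: biochemical luminescence-based dose-response counterscreen measuring inhibition of HNF4 dimerization, run alongside a screen for blockers of ABHD5–perilipin-5 interaction; split luciferase complementation of HNF4 fusion proteins in cell lysate measuring dimerization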
Chain of Hepatocyte nuclear factor 4-alpha (P41235 whole entry, the tested form may be a part): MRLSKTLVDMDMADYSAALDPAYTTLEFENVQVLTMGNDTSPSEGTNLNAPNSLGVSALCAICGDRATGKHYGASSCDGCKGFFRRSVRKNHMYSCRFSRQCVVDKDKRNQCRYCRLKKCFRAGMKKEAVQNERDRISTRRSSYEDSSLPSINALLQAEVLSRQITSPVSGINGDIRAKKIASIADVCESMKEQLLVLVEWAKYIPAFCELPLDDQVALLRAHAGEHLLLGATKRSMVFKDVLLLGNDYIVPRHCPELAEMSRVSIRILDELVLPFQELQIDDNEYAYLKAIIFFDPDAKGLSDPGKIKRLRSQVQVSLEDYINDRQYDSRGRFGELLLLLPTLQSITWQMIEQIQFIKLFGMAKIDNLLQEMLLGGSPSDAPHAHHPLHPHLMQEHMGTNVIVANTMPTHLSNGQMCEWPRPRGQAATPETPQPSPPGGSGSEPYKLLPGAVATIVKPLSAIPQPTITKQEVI

[20] = biological target: T2, Heat shock factor protein 1 (Mus musculus, UniProt P38532); assay: decrease of HSF1-responsive luciferase luminescence – cell-based, NIH3T3, dose retest, confirmation (AID 2382); type: functional;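 further: NIH3T3 fibroblasts with HSF1-driven luciferase reporter stressed by proteasome inhibitor MG132; luminescence from HSF1-driven luciferase expression after 8 hours of MG132 stress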
T2 sequence (P38532 whole entry): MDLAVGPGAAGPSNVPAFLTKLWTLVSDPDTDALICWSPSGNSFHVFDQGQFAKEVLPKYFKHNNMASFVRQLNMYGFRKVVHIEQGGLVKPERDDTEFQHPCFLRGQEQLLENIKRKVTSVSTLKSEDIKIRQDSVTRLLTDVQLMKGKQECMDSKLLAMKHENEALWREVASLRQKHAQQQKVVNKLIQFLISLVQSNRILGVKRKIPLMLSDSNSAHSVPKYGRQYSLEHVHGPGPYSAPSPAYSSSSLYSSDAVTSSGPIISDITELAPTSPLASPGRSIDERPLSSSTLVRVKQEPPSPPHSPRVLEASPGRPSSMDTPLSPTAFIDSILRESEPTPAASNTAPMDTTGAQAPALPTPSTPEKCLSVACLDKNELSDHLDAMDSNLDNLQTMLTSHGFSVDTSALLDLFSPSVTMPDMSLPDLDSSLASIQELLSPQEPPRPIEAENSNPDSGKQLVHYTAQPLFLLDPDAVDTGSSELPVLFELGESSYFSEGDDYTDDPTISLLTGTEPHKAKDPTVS

[21] = tested on: Vero; assay: viability of Vero cells under compound – cytotoxicity control for flavivirus capping enzyme inhibitors (AID 588742); type: functional; details: Chlorocebus sabaeus
[22] = biological target: T3, High affinity choline transporter 1 (Homo sapiens, UniProt Q9GZV3); assay: human choline transporter blockers, potency – cell-based, 10-point CRC, membrane potential dye, dose response (AID 588401); type: functional;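 further: membrane potential dye fluorescence of choline-evoked depolarization via CHT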
T3 sequence (Q9GZV3 whole entry): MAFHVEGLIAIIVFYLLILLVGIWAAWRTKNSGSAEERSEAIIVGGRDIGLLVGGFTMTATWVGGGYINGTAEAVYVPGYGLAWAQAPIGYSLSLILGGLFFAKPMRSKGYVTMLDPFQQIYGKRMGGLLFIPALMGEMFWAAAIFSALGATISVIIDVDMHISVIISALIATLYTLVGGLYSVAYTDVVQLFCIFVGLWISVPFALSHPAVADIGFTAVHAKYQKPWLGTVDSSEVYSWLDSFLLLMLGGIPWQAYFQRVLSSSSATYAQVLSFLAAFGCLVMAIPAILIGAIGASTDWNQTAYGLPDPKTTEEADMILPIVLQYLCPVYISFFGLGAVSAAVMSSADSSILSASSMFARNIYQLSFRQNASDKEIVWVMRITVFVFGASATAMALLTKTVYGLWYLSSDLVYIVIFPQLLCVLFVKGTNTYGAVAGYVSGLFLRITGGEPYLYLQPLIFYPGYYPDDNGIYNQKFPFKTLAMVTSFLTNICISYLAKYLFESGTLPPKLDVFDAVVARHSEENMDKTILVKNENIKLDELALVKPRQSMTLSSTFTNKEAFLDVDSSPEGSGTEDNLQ

[23] = biological target: T3, High affinity choline transporter 1; assay: human choline transporter blockers, potency – cell-based, 5-point CRC, membrane potential dye, dose response (AID 504840); type: functional
[24] = biological target: T4, Protein RecA (Mycobacterium tuberculosis, UniProt P9WHJ3); assay: Fluorescence Cell-Free Homogeneous Dose Retest to Identify Inhibitors of RecA-Intein Splicing Activity. [Related pubchem assays (depositor defined):AID2097, AID2223, AID489010, AID492950]; type: functional
T4 sequence (P9WHJ3 whole entry): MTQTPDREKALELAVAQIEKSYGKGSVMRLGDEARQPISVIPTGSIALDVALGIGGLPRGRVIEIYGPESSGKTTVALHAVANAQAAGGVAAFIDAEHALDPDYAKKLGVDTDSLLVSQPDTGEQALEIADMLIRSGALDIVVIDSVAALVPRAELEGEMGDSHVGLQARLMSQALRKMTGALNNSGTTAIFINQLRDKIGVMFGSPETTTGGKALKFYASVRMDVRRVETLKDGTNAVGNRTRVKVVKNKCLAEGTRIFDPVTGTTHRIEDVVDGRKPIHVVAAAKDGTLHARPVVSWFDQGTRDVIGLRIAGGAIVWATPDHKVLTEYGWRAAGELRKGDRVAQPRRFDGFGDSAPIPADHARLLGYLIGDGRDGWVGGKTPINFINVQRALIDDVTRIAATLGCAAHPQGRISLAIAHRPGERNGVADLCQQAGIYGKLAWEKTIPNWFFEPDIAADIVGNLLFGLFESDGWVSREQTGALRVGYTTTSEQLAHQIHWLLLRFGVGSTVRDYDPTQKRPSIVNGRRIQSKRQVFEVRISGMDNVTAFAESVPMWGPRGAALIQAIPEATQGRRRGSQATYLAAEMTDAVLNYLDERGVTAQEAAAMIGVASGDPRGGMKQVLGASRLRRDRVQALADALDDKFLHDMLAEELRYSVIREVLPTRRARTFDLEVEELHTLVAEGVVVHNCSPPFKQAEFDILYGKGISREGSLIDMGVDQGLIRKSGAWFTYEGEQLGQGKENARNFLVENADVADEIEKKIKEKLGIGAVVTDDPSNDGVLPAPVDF

[25] = biological target: T5, Neuropeptide Y receptor type 2 (Homo sapiens, UniProt P49146); type: functional, cell-based;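 on IC50: HEK293 cells expressing the receptor and a CNG channel; stimulus was NPY near EC95 followed by isoproterenol to raise cAMP; antagonist potency measured as restoring cAMP signal that NPY suppresses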
T5 sequence (P49146 whole entry): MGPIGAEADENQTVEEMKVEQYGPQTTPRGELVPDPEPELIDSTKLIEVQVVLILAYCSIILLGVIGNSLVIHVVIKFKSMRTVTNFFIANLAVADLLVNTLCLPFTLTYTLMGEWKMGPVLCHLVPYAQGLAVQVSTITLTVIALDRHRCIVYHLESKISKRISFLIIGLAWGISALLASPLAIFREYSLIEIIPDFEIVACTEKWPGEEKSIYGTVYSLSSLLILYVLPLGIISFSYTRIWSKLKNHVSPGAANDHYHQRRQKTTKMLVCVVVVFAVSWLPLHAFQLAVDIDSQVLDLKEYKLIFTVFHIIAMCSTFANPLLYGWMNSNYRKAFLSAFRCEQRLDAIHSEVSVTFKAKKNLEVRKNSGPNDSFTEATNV

[26] = Luminescence Cell-Based Dose Retest to Confirm Inhibitors of Cancer Stem Cells. [Related pubchem assays (depositor defined):AID2717, AID2721]; type: functional; details: Homo sapiens
[27] = toxicity toward HEK293 cells – cell-based, dry powder samples, cytotoxicity control, dose response (AID 720567); type: functional
[28] = biological target: T6, Neuropeptide Y receptor type 1 (Homo sapiens, UniProt P25929); type: functional;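 on IC50: HEK293 cells with a CNG channel challenged with NPY then isoproterenol; potency as antagonist that reverses NPY suppression of cAMP signal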
T6 sequence (P25929 whole entry): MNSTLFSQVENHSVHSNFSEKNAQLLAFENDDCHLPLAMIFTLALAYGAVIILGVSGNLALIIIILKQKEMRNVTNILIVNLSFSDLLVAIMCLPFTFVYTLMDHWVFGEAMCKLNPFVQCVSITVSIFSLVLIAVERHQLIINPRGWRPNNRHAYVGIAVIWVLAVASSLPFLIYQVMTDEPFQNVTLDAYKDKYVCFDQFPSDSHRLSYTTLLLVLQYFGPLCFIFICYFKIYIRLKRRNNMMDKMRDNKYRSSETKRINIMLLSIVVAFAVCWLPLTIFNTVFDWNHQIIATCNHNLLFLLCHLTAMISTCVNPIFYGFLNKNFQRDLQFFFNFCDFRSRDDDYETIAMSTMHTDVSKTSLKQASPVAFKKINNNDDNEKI

[29] = viability loss in HEK293T cells – cell-based, cherry-picks, cytotoxicity control for HIV Vif inhibitor project, dose response (AID 652208); type: functional
[30] = tested on: HEK293; assay: Fluorescence-based counterscreen for potentiators or agonists of NPY-Y2: cell-based high-throughput dose response assay to identify inhibitors of cyclic nucleotide gated ion channel (CNGC) activity. In this assay, the parental HEK293 cell line transfected with a cyclic-nucleotide gated ion channel (CNGC)-based cAMP sensor is used to measure inhibition of isoproterenol-induced CNGC activity by test compound.; type: functional; details: Homo sapiens
[31] = biological target: T5, Neuropeptide Y receptor type 2; assay: Fluorescence-based cell-based high-throughput dose response assay for agonists of NPY-Y2. [Related pubchem assays: 1703 (Screening assay (CNGC inhibitors).), 1359 (Screening assay (NPY-Y2 potentiators or agonists).), 1304 (Screening assay (NPY-Y1 potentiators or agonists).), 1710 (Screening assay (NPY-Y2 agonists).), 1791 (Summary AID.)]; type: functional
[32] = biological target: T6, Neuropeptide Y receptor type 1; assay: Fluorescence-based counterscreen for agonists of NPY-Y2: cell-based high-throughput dose response assay for agonists of NPY-Y1.; type: functional

For `Cc1c(Cc2ccccc2)c(=O)oc2cc(O)cc(O)c12`, the IC50 [1] was 36.1 µM (active).

For `CCOc1ccc(NC(=O)c2ccc(NC(S)=NC3CC3)cc2)cc1`, the CC50 [2] was > 99 µM (not active).

In the case of `O=C(N/N=C/c1c(O)ccc2ccccc12)c1cccnc1`, the EC50 [3] is reported as 9.03 µM (active), the EC50 [4] is reported as 3.14 µM (active) and the AC50 [5] is reported as 0.794 µM (active). The EC50 [6] was 1.3 µM (active), the IC50 [7] was 3.67 µM (active) and the EC50 [8] was 8.55 µM (active). For the same molecule, the EC50 [9] was > 160 µM (inactive), the AC50 [10] was 7.53 µM (active) and the IC50 [11] was 12.1 µM (active). The EC50 [12] was > 350 µM (not active).

For `CC(C)c1nnc(NC(=O)c2nc(S(=O)(=O)Cc3ccc(F)cc3)ncc2Cl)s1`, the CC50 [13] was 28.1 µM (active), the EC50 [14] was 4.47 µM (active) and the AC50 [15] was 4.34 µM (active). For the same molecule, the AC50 [16] was 2.83 µM (active), the AC50 [17] was 3.54 µM (active) and the IC50 [18] was 96 µM (active). For the same molecule, the IC50 [19] was 4.69 µM (active), the EC50 [20] was 3.33 µM (active) and the CC50 [21] was 27.1 µM (active). For the same molecule, the IC50 [22] was 4.47 µM (active), the IC50 [23] was 6.08 µM (active) and the EC50 [24] was 2.73 µM (active).

With `Cc1ccc(CCC(=O)Nc2ncc(Cc3cc(Cl)ccc3Cl)s2)o1` the IC50 [25] was 9.88 µM (active), the AC50 [26] was 0.251 µM (active) and the AC50 [27] was 7.96 µM (active). The IC50 [28] was 7.27 µM (active) and the AC50 [29] was 34.7 µM (active).

For `Cc1c(C(=O)O)[nH]c2ccc([N+](=O)[O-])cc12`, the EC50 [30] was 6.29 µM (active), the EC50 [31] was 6.99 µM (active) and the EC50 [32] was 6.64 µM (active).
